The target in test [1] is T1, hM1 (human Muscarinic receptor subtype 1) (Homo sapiens, UniProt P11229).
T1 construct: expressed in transfected cells; host or cells: CHO cells (Chinese hamster ovary cells, ATCC)
T1 sequence (P11229 1-460): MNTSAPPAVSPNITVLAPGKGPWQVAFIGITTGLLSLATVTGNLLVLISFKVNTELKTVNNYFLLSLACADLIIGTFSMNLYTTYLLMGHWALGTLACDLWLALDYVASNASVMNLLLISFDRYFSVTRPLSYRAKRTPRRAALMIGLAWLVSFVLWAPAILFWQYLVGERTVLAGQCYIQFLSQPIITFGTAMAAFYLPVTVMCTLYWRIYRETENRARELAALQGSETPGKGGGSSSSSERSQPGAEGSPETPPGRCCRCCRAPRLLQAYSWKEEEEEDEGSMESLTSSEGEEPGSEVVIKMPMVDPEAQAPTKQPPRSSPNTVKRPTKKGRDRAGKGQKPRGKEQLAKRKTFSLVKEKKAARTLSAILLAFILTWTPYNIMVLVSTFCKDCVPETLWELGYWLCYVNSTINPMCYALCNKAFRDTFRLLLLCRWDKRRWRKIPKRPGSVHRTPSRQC
The experiment in a line: Human M1 calcium mobilization FLIPR assay. In kind it is cell-based. The note with it: CHO cells expressing hM1, intracellular Ca2+ release. The method, then:
The compound activity in the present invention (EC50 or IC50) is measured using a 384 plate-based imaging assay that monitors drug induced intracellular Ca^2+ release in whole cells. Activation of hM1 (human Muscarinic receptor subtype 1, gene bank access NM_000738), rM1 (rat Muscarinic receptor subtype 1, gene bank access NM_080773), hM3 (human Muscarinic receptor subtype 3, gene bank access NM_000740NM_000740) and hM5 (human Muscarinic receptor subtype 5, gene bank access NM_0121258), receptors expressed in CHO cells (Chinese hamster ovary cells, ATCC) is quantified in a Molecular Devices FLIPR II™ instrument as an increase in fluorescent signal. Inhibition of hM3 and hM5 by compounds is determined by the decrease in fluorescent signal in response to 2 nM acetylcholine activation.
Prior to experiment, the cell culture medium is removed from the plates by inversion. […] Plates are incubated at 37° C. for 60 minutes prior to start the experiment. The incubation is terminated by washing the cells four times in assay buffer, leaving a residual 25 μl buffer per well. Cell plates are then transferred to the FLIPR, ready for compound additions.
The day of experiment, acetylcholine and compounds are diluted in assay buffer in three-fold concentration range (10 points serial dilution) for addition by FLIPR instrument. For all calcium assays, a baseline reading is taken for 10 seconds followed by the addition of 12.5 μl of compounds, resulting in a total well volume of 37.5 μl. Data is collected every second for 60 pictures and then every 6 seconds for 20 pictures prior to the addition of agonist. For hM3 and hM5, before agonist addition, a second baseline reading is taken for 10 seconds followed by the addition of 12.5 μl of agonist or buffer, producing a final volume of 50 μl. After agonist stimulation, the FLIPR continues to collect data every second for 60 pictures and then every 6 seconds for 20 pictures. The fluorescence emission is read using filter 1 (emission 510-570 nm) by the FLIPR on board CCD camera.
Calcium mobilization output data are calculated as the maximal relative fluorescence unit (RFU) minus the minimal value for both compound and agonist reading frame (except for hM1 and rM1 using only the maximal RFU). Data are analyzed using sigmoidal fits of a non-linear curve-fitting program (XLfit version 4.2.2 Excel add-in version 4.2.2 build 18 math 1Q version 2.1.2 build 18). All pEC50 and pIC50 values are reported as arithmetic means±standard error of mean of ‘n’ independent experiments.
Background: Calcium flux is commonly read through the fluorescence of an indicator in the cells.

Test [2] has as its system SNL rats (heat hyperalgesia). Kind of test: Rat SNL heat hyperalgesia assay. In kind it is in vivo. The note with it: sc, male Sprague Dawley SNL rats, paw withdrawal latency, morphine s.c. 30 min before testing, example 2 per os 60 min before testing, combination ratio example 2:morphine 1:1.56.
Experimental: Rats undergo spinal nerve ligation surgery as described in Kim and Chung (1992) (reference 1). Briefly, rats are anesthetized with isoflurane, the left L5 and L6 are isolated and tightly ligated with 4-0 silk thread. The wound is closed by suturing and applying tissue adhesive. Compound testing is performed at day 9 to day 36 post-surgery.
For behavioral testing, the animals are acclimatized to the test room environment for a minimum of 30 min. In order to assess the degree of hyperalgesia, the animals are placed on a glass surface (maintained at 30° C.), and a heat-source is focused onto the plantar surface of the left paw. The time from the initiation of the heat until the animal withdraws the paw is recorded. Each animal is tested twice (with an interval of 10 min between the two tests). A decrease in Paw Withdrawal Latency (PWL, average of the two tests) relative to naïve animals indicates a hyperalgesic state. The rats with a PWL of at least 2 seconds less than average PWL of Naïve group are selected for compound testing. […]
In order to assess the degree of heat hyperalgesia, the rats were individually placed in Plexiglas boxes on the glass surface (maintained at 30° C.) of a paw thermal stimulator system (Model 390, series 8, IITC Life Science, Woodland Hills, USA) and allowed to acclimate for 30 min. […] Paw withdrawal latencies (PWLs) were calculated as the mean of the two values.

As a reminder, the pEC50 is the EC50 on a negative log10 scale, so that one unit is a factor of ten. In general, ED50 refers to the dose at which the effect has come halfway, by size or by number of responders.

pEC50: −log10 of the molar value.

Consider `CC#CCOC(=O)N1CCC(C)(N2CCC(N3C(=O)N[C@H]4CCCC[C@@H]43)CC2)C1` (single isomer, unassigned) [Example 20], for which, in test [1], the pEC50 is 6.59.
In the case of `CN1CC[C@]23c4c5ccc(O)c4O[C@H]2[C@@H](O)C=C[C@H]3[C@H]1C5` [Morphine, reference compound], in test [2], the ED50 came to 3.8 µmol/kg.

Values taken from patent US8119661B2, “Piperidine derivatives and their use as muscarinic receptor modulators” (AstraZeneca AB, priority 2007, dated 2012).
